The text below walks through data of US20050009840A1 (SUGEN, INC., priority 2003, published 2005).

Structures are written as SMILES.

As a reminder, the IC50 is the point on the concentration scale where inhibition reaches its midpoint.

In the first assay the target is T1, Met kinase domain (GST fusion protein) (Homo sapiens, UniProt P08581).
T1 construct: Purified GST fusion protein containing the Met kinase domain
T1 sequence (P08581 1078-1345 limits assumed): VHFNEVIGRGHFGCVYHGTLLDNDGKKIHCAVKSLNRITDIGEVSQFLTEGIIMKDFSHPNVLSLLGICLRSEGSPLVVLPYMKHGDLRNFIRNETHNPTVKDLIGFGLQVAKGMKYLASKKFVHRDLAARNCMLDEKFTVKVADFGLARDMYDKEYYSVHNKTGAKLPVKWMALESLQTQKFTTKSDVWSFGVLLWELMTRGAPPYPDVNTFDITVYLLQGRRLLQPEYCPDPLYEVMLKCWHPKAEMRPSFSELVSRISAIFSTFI
In words: Met transphosphorylation assay (ELISA, poly(glu-tyr) substrate).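 Further: Cell-free ELISA with plate-bound poly(Glu:Tyr 4:1) phosphorylated by GST-fused Met kinase domain plus ATP and Mn2+, phosphotyrosine detected by anti-phosphotyrosine antibody with HRP and ABTS read-out.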 The format is biochemical. The conditions noted are these: Table 2; read-out: Met IC50.
For `CN(C)C1CCN(C(=O)c2ccc(-c3cnc(N)c(OCc4ccc(C(C)(C)C)cc4)c3)cc2)C1` (stereo in doubt) [Example I-196, {4-[6-Amino-5-(4-tert-butyl-benzyloxy)-pyridin-3-yl]-phenyl}-[(3R)-3-dimethylamino-pyrrolidin-1-yl]-methanone], the IC50 was 4.29 µM.

Still in this assay, the particulars now being: read-out: Met IC50.
As for `Nc1ncc(-c2cccc(NS(=O)(=O)CCN3CCCC3CO)c2)nc1OCc1c(F)ccc(F)c1Cl` (centres unmarked), the IC50 was found to be 1.38 µM. Consider `Nc1ncc(-c2cccc(OCCN3CCOCC3)c2)cc1OCc1c(Cl)cccc1Cl` [Example I-3, 3-(2,6-Dichloro-benzyloxy)-5-[3-(2-morpholin-4-yl-ethoxy)-phenyl]-pyridin-2-ylamine], for which the IC50 is 0.59 µM. On to `Nc1ncc(-c2cccc3[nH]ccc23)cc1OCc1c(Cl)cccc1Cl` [Example I-4, 3-(2,6-Dichloro-benzyloxy)-5-(1H-indol-4-yl)-pyridin-2-ylamine], for which the IC50 was 1.4 µM. On the same count and under the same terms, as for `Nc1ncc(-c2cccc3[nH]ccc23)cc1OCc1c(Cl)cccc1-c1cccc2[nH]ccc12` [Example I-5, 3-[2-Chloro-6-(1H-indol-4-yl)-benzyloxy]-5-(1H-indol-4-yl)-pyridin-2-ylamine], the figure is 4.71 µM; as for `CC(C)(C)OC(=O)n1cccc1-c1cnc(N)c(OCc2c(Cl)cccc2Cl)c1` [Example I-6, 2-[6-Amino-5-(2,6-dichloro-benzyloxy)-pyridin-3-yl]-pyrrole-1-carboxylic acid tert-butyl ester], above 20 µM. Regarding `Nc1ncc(-c2ccc[nH]2)cc1OCc1c(Cl)cccc1Cl` [Example I-7, 3-(2,6-Dichloro-benzyloxy)-5-(1H-pyrrol-2-yl)-pyridin-2-ylamine], the IC50 came out at 4.25 µM.

Take `Nc1ncc(-c2ccc(F)cc2)cc1OCc1c(Cl)cccc1Cl` [Example I-8, 3-(2,6-Dichloro-benzyloxy)-5-(4-fluoro-phenyl)-pyridin-2-ylamine]: the IC50 was found to be 8.01 µM. Turning to `Nc1ncc(-c2ccccc2F)cc1OCc1c(Cl)cccc1Cl` [Example I-10, 3-(2 6-Dichloro-benzyloxy)-5-(2-fluoro-phenyl)-pyridin-2-ylamine], the IC50 stood at 6.09 µM. Take `Nc1ncc(-c2cccc(F)c2)cc1OCc1c(Cl)cccc1Cl` [Example I-11, 3-(2,6-Dichloro-benzyloxy)-5-(3-fluoro-phenyl)-pyridin-2-ylamine]: the IC50 was found to be 13.8 µM. The same measure, in the same setting: the same measure for `Nc1ccc(-c2cnc(N)c(OCc3c(Cl)cccc3Cl)c2)cc1` [Example I-12, 5-(4-Amino-phenyl)-3-(2,6-dichloro-benzyloxy)-pyridin-2-ylamine]: 0.606 µM. For the compound `CS(=O)(=O)Nc1ccc(-c2cnc(N)c(OCc3c(Cl)cccc3Cl)c2)cc1` [Example I-13, N-{4-[6-Amino-5-(2,6-dichloro-benzyloxy)-pyridin-3-yl]-phenyl}-methanesulfonamide], the IC50 was found to be 0.44 µM. The same measure, in the same setting: the same measure for `CC(=O)Nc1ccc(-c2cnc(N)c(OCc3c(Cl)cccc3Cl)c2)cc1` [Example I-14, N-{4-[6-Amino-5-(2,6-dichloro-benzyloxy)-pyridin-3-yl]-phenyl}-acetamide]: above 20 µM. As for `Nc1ncc(-c2cccc(O)c2)cc1OCc1c(Cl)cccc1Cl` [Example I-15, 3-[6-Amino-5-(2,6-dichloro-benzyloxy)-pyridin-3-yl]-phenol], the IC50 was found to be 1.34 µM. For `COc1ccc(-c2cnc(N)c(OCc3c(Cl)cccc3Cl)c2)cc1` [Example I-16, 3-(2,6-Dichloro-benzyloxy)-5-(4-methoxy-phenyl)-pyridin-2-ylamine], the IC50 stood at 6.55 µM. For the compound `Nc1ncc(-c2cccc(OC(F)(F)F)c2)cc1OCc1c(Cl)cccc1Cl` [Example I-18, 3-(2,6-Dichloro-benzyloxy)- -5-(3-trifluoromethoxy-phenyl)-pyridin-2-ylamine], the IC50 was above 20 µM. As to `Nc1ncc(-c2ccccc2O)cc1OCc1c(Cl)cccc1Cl` [Example I-19, 2-[6-Amino-5-(2,6-dichloro-benzyloxy)-pyridin-3-yl]-phenol], the IC50 was found to be 2.16 µM. The same measure, in the same setting: the same measure for `Nc1ncc(-c2ccccc2Oc2ccccc2)cc1OCc1c(Cl)cccc1Cl` [Example I-20, 3-(2,6-Dichloro-benzyloxy)-5-(2-phenoxy-phenyl)-pyridin-2-ylamine]: above 20 µM; for `Nc1ncc(-c2ccc(F)c(F)c2)cc1OCc1c(Cl)cccc1Cl` [Example I-21, 3-(2,6-Dichloro-benzyloxy)-5-(3,4-difluoro-phenyl)-pyridin-2-ylamine]: 14.3 µM.

As for `CC(C)c1cccc(-c2cnc(N)c(OCc3c(Cl)cccc3Cl)c2)c1` [Example I-22, 3-(2,6-Dichloro-benzyloxy)-5-(3-isopropyl-phenyl)-pyridin-2-ylamine], the IC50 worked out at 15.9 µM. Turning to `Nc1ncc(-c2ccccc2C(F)(F)F)cc1OCc1c(Cl)cccc1Cl` [Example I-23, 3-(2,6-Dichloro-benzyloxy)-5-(2-trifluoromethyl-phenyl)-pyridin-2-ylamine], the IC50 was above 20 µM.

For the compound `COc1ccccc1-c1cnc(N)c(OCc2c(Cl)cccc2Cl)c1` [Example I-24, 3-(2,6-Dichloro-benzyloxy)-5-(2-methoxy-phenyl)-pyridin-2-ylamine], the IC50 is 11.5 µM. On the same count and under the same terms, the same measure for `Nc1ncc(-c2ccc(C(F)(F)F)cc2)cc1OCc1c(Cl)cccc1Cl` [Example I-25]: above 20 µM; for `CS(=O)(=O)Nc1ccccc1-c1cnc(N)c(OCc2c(Cl)cccc2Cl)c1` [Example I-26, N-{2-[6-Amino-5-(2,6-dichloro-benzyloxy)-pyridin-3-yl]-phenyl}-methanesulfonamide]: above 20 µM; for `Nc1ncc(-c2ccc(CO)cc2)cc1OCc1c(Cl)cccc1Cl` [Example I-27, {4-[6-Amino-5-(2,6-dichloro-benzyloxy)-pyridin-3-yl]-phenyl}-methanol]: 2.5 µM. Turning to `Nc1ncc(-c2ccc3c(c2)OCO3)cc1OCc1c(Cl)cccc1Cl` [Example I-28, 5-Benzo[1,3]dioxol-5-yl-3-(2,6-dichloro-benzyloxy)-pyridin-2-ylamine], the IC50 worked out at 8.5 µM. Turning to `Nc1ncc(-c2ccccc2OC(F)(F)F)cc1OCc1c(Cl)cccc1Cl` [Example I-29, 3-(2,6-Dichloro-benzyloxy)-5-(2-trifluoromethoxy-phenyl)-pyridin-2-ylamine], the IC50 was above 20 µM. For the compound `Cc1csc(-c2cnc(N)c(OCc3c(Cl)cccc3Cl)c2)c1` [Example I-30, 3-(2,6-Dichloro-benzyloxy)-5-(4-methyl-thiophen-2-yl)-pyridin-2-ylamine], the IC50 amounted to 3.5 µM. Consider `Nc1ncc(-c2ccccc2OCc2ccccc2)cc1OCc1c(Cl)cccc1Cl` [Example I-31, 5-(2-Benzyloxy-phenyl)-3-(2,6-dichloro-benzyloxy)-pyridin-2-ylamine], for which the IC50 is above 20 µM. With `COc1cccc(-c2cnc(N)c(OCc3c(Cl)cccc3Cl)c2)c1` [Example I-32, 3-(2,6-Dichloro-benzyloxy)-5-(3-methoxy-phenyl)-pyridin-2-ylamine], the IC50 is 4.01 µM. `Nc1ncc(-c2cc3ccccc3[nH]2)cc1OCc1c(Cl)cccc1Cl` [Example I-33, 3-(2,6-Dichloro-benzyloxy)-5-(1H-indol-2-yl)-pyridin-2-ylamine]: the IC50 came to 7.5 µM.

With `Nc1ncc(-c2ccc(OCc3ccccc3)c(F)c2)cc1OCc1c(Cl)cccc1Cl` [Example I-34, 5-(4-Benzyloxy-3-fluoro-phenyl)-3-(2,6-dichloro-benzyloxy)-pyridin-2-ylamine], the IC50 was 13.5 µM.
